In US20070031511A1, “Method of treatment” (priority 2003, published 2007):
Entries after “also recorded” stand apart in the source; their conditions may differ.

Columns and labels:
IMGE-5 cells [1] = assay: IMGE-5 cell proliferation, MTT assay; format: cell-based, mice; conditions: for Mean Response ± SEM (% Control), proliferation of IMGE cells: treatment alone: 10 nM Ggly, 32 mol/mol Bi without Ggly, fetal calf serum positive control
HT29 cells = assay: HT29 cell proliferation, MTT assay; format: cell-based, human
[2] = system: HT29 human colorectal carcinoma cells; assay: Ggly-stimulated inositol phosphate production in HT29 cells; format: cell-based
Description: Intracellular inositol phosphate production was determined as described previously (Qian et al, 1993). IMGE-5 cells (10^5 cells/ml) were plated in 24-multiwell culture plates in DMEM supplemented with 10% FBS, 200 IU/ml penicillin and 200 μg/ml streptomycin. 24 h later, cells were incubated with DMEM supplemented with antibiotics and Myo-[2-^3H]inositol (2.5 μCi/well) and shifted to 39° C. for 16 h. Cells were then washed with pre-warmed DMEM and incubated (20-30 minutes, 37° C.) with DMEM supplemented with 20 mM LiCl. Loaded cells were then washed in 1 ml of IP buffer (135 mM NaCl, 20 mM N-(2-hydroxyethyl)piperazine-N′-(2-ethanesulfonic acid), 2 mM CaCl2, 1.2 mM MgSO4, 1 mM ethylene glycol-bis(2-aminoethylether)-N,N,N′,N′-tetraacetic acid, 10 mM LiCl, and 0.5% bovine serum albumin, pH 7.45) and incubated with or without agonist in a final volume of 0.5 ml of IP buffer. After 1-h incubation at 37° C., the reaction was stopped by removing the incubation medium and adding 1 ml of a mixture of ethanol/HCl (2000:1; v/v). One ml of each aliquot was applied to a column containing 1.6 ml of a 1:2 (v/v) Dowex AG-1-X8 anion exchange resin in distilled water. The columns were washed with 4 ml of distilled water, followed by 4 ml of 40 mM HCOONH4, and inositol phosphates were eluted with 4 ml of 1 M HCOONH4. The radioactivity of each eluate was counted after addition of Complete phase combining system solution (Amersham, UK). For the positive control, IMGE-5 cells were incubated with a combination of 30 mM NaF and 10 μM AlCl3 under the same experimental conditions.
Ggly-stimulated inositol phosphate production was measured in HT29 human colorectal carcinoma cells.

IMGE-5 cells [3] = assay: Wound healing / cell migration assay; format: cell-based, mice; conditions: for Stimulation of IMGE-5 cell migration: wound healing assay, fragments and mutants shown at 1 nM (FIGS. 7B, 8B)
Summary of the method: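 Murine gastric IMGE-5 cells at 80% confluence were shifted to 39 °C (non-permissive), serum-starved 24 h, then scratch-wounded. They were treated with or without compound in serum-free DMEM. Wound width was measured at six positions after 24 h and averaged.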

[4] = system: AGS gastric carcinoma cells; assay: AGS cell proliferation, MTT assay; format: cell-based, human; conditions: treatment alone: 10 nM Ggly; 32 mol/mol Bi without Ggly; fetal calf serum positive control
CCK-2 receptor = biological target: T1, CCK-2 receptor (Homo sapiens, UniProt P32239); assay: [125I]-BH-CCK8 displacement, CCK-2 receptor on transiently transfected COS-7 cells; format: binding; parameters: COS-7 cells transiently transfected with CCK-2 receptor cDNA; expressed in transfected cells; host or cells: COS-7
T1 sequence (P32239 1-447): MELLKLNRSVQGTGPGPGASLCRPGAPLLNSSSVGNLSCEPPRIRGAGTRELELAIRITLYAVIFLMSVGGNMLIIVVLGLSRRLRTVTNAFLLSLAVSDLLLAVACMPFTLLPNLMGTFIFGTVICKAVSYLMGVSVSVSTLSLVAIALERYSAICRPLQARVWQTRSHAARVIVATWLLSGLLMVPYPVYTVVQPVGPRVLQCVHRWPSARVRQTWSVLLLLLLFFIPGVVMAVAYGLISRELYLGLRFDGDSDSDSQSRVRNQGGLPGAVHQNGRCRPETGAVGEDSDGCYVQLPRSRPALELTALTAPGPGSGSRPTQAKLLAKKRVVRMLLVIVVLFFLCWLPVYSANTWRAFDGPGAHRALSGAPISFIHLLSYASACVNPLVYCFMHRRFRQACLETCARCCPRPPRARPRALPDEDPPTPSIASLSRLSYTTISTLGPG
Description: Non-specific binding was evaluated with […] of unlabelled CCK8. Incubation was stopped by adding 2 ml of ice-cold PBS containing 2% bovine serum albumin. After centrifugation, supernatants were removed and the radioactivity bound to the cell membranes was measured in a γ-counter (LKB, Wallac, Finland).
The lines of best fit shown in FIG. 21 were obtained by nonlinear regression to a single site model with the program Sigmaplot.

| Compound | Increase in proliferation of IMGE-5 (IMGE-5 cells [1]) [fold] | Mean Response ± SEM (% Control), proliferation of IMGE cells (IMGE-5 cells [1]) [% Control] | HT29 cell proliferation compared to the control (HT29 cells; 10 nM Ggly, MTT) [%] | Inositol phosphate production compared to the control ([2]; HT29 cells, 10 nM Ggly) [%] | Stimulation of IMGE-5 cell migration (IMGE-5 cells [3]) | Mean Response ± SEM (% Control), proliferation of AGS cells [4] [% Control] | Effect on proliferation induced by Ggly (HT29 cells; 2, 8 or 32 moles/mole, 10 nM Ggly, HT29) | Effect of bismuth ions alone on proliferation (HT29 cells; HT29, highest concentrations tested) | Effect on binding of CCK8 to the CCK-2 receptor (CCK-2 receptor; 2, 8 or 32 moles/mole, transfected COS-7 cells (FIG. 16)) | Effect on Ggly-induced inositol phosphate production ([2]; 2, 8, and 32 moles Bi3+/mole Ggly, 10 nM Ggly) | Effect of bismuth ions alone on inositol phosphate production ([2]; HT29 cells, highest concentration tested) | Effect on Ggly-induced migration of IMGE-5 cells (IMGE-5 cells [3]; 2, 8 or 32 moles/mole Ggly, 10 nM Ggly, 17 or 24 hours) | Effect of bismuth ions alone on migration (IMGE-5 cells [3]; maximum concentration tested, without Ggly) | % Maximum Binding (COS-7) (CCK-2 receptor; binding in the absence of competitor, fitted, mean ± S.E.) [%] | % Maximum Binding (COS-7) (CCK-2 receptor; presence and absence of 1 μM DFO) [%] | Predicted ordinate intercept, FIG. 21 (CCK-2 receptor; single experiment) [%] | Ordinate intercept, FIG. 24A (CCK-2 receptor; single experiment, presence and absence of 1 μM DFO) [%] |
| --- | --- | --- | --- | --- | --- | --- | --- | --- | --- | --- | --- | --- | --- | --- | --- | --- | --- |
| Ggly: glycine-extended gastrin17, 18 amino acid non-amidated gastrin, SEQ ID NO:4, residues 55-72 of progastrin (XGPWLEEEEEAYGWMDFG; (1)..(1) pyroglutamate; listed as Homo sapiens) | 2 | 135.7 ± 3.6 | 120 | 225 | considerably reduced wound size | 126.0 ± 2.3 | – | – | – | – | – | – | – | – | – | – | – |
| [Bi+3] [bismuth ions] | – | 97.9 ± 2.5 | – | – | – | 102.2 ± 4.2 | significantly decreased the proliferation induced by Ggly | no effect | no effect | significantly reduced this Ggly-induced stimulation | no effect | completely blocked | no effect | – | – | – | – |
| CSCC[C@H](NC(=O)[C@H](Cc1c[nH]c2ccccc12)NC(=O)CNC(=O)[C@H](Cc1ccc(O)cc1)NC(=O)[C@H](C)NC(=O)[C@H](CCC(=O)O)NC(=O)[C@H](CCC(=O)O)NC(=O)[C@H](CCC(=O)O)NC(=O)[C@H](CCC(=O)O)NC(=O)[C@H](CCC(=O)O)NC(=O)[C@H](CC(C)C)NC(=O)[C@H](Cc1c[nH]c2ccccc12)NC(=O)[C@@H]1CCCN1C(=O)CNC(=O)[C@@H]1CCC(=O)N1)C(=O)N[C@@H](CC(=O)O)C(=O)N[C@@H](Cc1ccccc1)C(N)=O [Gamide] | 2 | – | – | – | did not stimulate IMGE-5 cell migration; also recorded: inactive | – | – | – | – | – | – | – | – | 94.2 ± 2.4 | 81.1 ± 1.7 | 86.1 | 81.1 |
